≈ marks a conversion by molar mass, not a printed value.
What was measured:
[1] = test system: Aspergillus fumigatus; experiment: Antimicrobial activity against Aspergillus fumigatus by standard microdilution broth method; format: functional
[2] = test system: Candida albicans; experiment: Antimicrobial activity against Candida albicans by standard microdilution broth method; format: functional

Row | Structure (SMILES) | IC90 [1] [mg/L] | MIC [2] [mg/L]
1 | CC/C=C/C(CC)C/C=C/[C@@]1(CC)C[C@H](CC)[C@@H](CC(=O)O)OO1 (stereo partly specified) | 5.6 (≈ 16.5 µM) | 5 (≈ 14.8 µM)
2 | CC(CCCCCCC/C=C/C=C/c1ccccc1)C[C@]1(C)C[C@@](C)(CC(=O)O)OO1 (relative stereo) |  | 1.6 (≈ 3.73 µM)
3 | CC(CCCCCCC/C=C/C=C/c1ccccc1)C[C@]1(C)C[C@](C)(CC(=O)O)OO1 (relative stereo) |  | 1.6 (≈ 3.73 µM)
4 | C[C@@H]1[C@H](O)[C@@H](C)/C=C/C=C/C=C/C=C/C=C/C=C/C=C/[C@H](O[C@@H]2O[C@H](C)[C@@H](O)[C@H](N)[C@@H]2O)C[C@@H]2O[C@](O)(C[C@@H](O)C[C@@H](O)[C@H](O)CC[C@@H](O)C[C@@H](O)CC(=O)O[C@H]1C)C[C@H](O)[C@H]2C(=O)O [AMPHOTERICIN B] | 1 (≈ 1.08 µM) | 
5 | Nc1nc(=O)[nH]cc1F [FLUCYTOSINE] |  | 1.62 (≈ 12.5 µM)

Reference: ChEMBL document CHEMBL1150664, “New bioactive peroxides from marine sponges of the family plakiniidae” (2002)
